This note sets out measurements from US11725036B2, “Modified lipidated relaxin B chain peptides and their therapeutic use” (Sanofi, priority 2018, dated 2023).

In brackets after ≈: the same amount, converted by molar mass. Like-named read-outs stand apart in the source and are kept apart here. Starred links: 1 amine or outer side, 2 acyl side, 3 side chain; linkers in the order of their positions; H or OH if unused. Non-standard residues stand in square brackets, D forms with d. Residues, ends and D or L forms follow the SMILES beside them. Groups on a side chain read outwards from the residue. *: point of attachment. X5 = CCCCCCCCCCCCCCCC(=O)N[C@@H](CCC(=O)N[C@@H](CCC(=O)N[C@@H](CCC(=O)NCCCOCCOCCOCCCNC(=O)CCC(=O)NCCCOCCOCCOCCCNC(=O)CCC(=O)NCCCOCCOCCOCCCNC(=O)CCC(=O)NCCCOCCOCCOCCCN*)C(=O)O)C(=O)O)C(=O)O; X1 = CCCCCCCCCCCCCCCC(=O)N[C@@H](CCC(=O)N[C@@H](CCC(=O)N[C@@H](CCC(=O)NCCCOCCOCCOCCCNC(=O)CCC(=O)NCCCOCCOCCOCCCNC(=O)CCC(=O)NCCCOCCOCCOCCCN*)C(=O)O)C(=O)O)C(=O)O; Suc = O=C(CCC(=O)[*:2])[*:1]; Aib = CC(C)(N)C(=O)O

The nature of series [1]: Solubility testing in buffer. The class given is physicochemical. The note with it: target solubility 10.0 mg/ml.
The nature of series [2]: Stability in rat plasma. The class given is in vitro ADME. The note with it: for Rat plasma stability % remaining: T = 0, 37° C., 5 μM. The procedure: (§1) Prior to the testing of stability in plasma (or blood) of a peptide batch, its purity (HPLC-UV) was determined.
(§2) Rat and Human plasma: anti-coagulant sodium or lithium heparin.
(§3) 100 μM solution of study compound in 50 mM phosphate buffer pH 7.4.
(§4) 950 μL plasma (or blood) was pre-incubated for 5 min at 37° C. 50 μL of compound stock solution was added. Final compound concentration=5 μM. Vortex and transfer 150 μL plasma (or blood) into an Eppendorf for each time point. The time points […] were carried out in duplicate for each species.
(§5) After incubation, 150 μL plasma (or blood) was extracted with 600 μL Acetonitrile containing 1% TFA. Said mixture was then vortexed and centrifuged 10 min at 14600 rpm. 200 μL supernatant was dried under N2. Sample was then reconstituted in 200 μL of H2O/CH3CN 98/2+0.1% FA+50 ng/ml Labetalol and analyzed using the analytical system used in solubility and stability studies.
(§6) For determination of the amount of the remaining peptide, the peak areas of the target compound at t0 and each time point […] were compared, resulting in “% remaining peptide”, following the equation: % remaining peptide=[(peak area peptide time)×100]/peak area peptide t0. The stability was expressed as “% remaining peptide”.

Series [3] has as its target T1, RXFP1 (Homo sapiens, UniProt Q9HBX9).
T1 construct: OVCAR5 cells expressing endogenous RXFP1; endogenous in cells; host or cells: OVCAR5
T1 sequence (Q9HBX9 1-757): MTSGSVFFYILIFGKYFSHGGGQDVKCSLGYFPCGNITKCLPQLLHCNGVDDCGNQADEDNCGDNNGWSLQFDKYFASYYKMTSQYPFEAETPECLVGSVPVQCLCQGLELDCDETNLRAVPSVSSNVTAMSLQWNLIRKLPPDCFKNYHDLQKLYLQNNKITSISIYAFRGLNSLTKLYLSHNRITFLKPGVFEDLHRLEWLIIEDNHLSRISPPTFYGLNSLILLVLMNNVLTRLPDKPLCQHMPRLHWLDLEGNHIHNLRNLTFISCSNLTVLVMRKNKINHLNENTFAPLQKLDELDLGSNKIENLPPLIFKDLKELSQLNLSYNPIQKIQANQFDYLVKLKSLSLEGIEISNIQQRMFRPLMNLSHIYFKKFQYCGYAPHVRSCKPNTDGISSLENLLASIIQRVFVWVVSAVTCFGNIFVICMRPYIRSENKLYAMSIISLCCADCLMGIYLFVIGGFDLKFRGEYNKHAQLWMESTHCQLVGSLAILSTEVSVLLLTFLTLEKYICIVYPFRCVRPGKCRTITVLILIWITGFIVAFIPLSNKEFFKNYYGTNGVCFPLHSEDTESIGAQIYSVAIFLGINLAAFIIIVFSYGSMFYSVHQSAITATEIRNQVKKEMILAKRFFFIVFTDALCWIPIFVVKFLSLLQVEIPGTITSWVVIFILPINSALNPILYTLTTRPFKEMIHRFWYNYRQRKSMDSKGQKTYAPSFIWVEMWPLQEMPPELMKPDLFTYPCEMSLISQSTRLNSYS
As to the kind of experiment: OVCAR5 cAMP assay (HTRF). The class given is cell-based. Particulars: for EC50: OVCAR 5 cells expressing endogenous RXFP1, cAMP readout; for Emax: OVCAR 5 cells, maximal cAMP relative to H2-relaxin. In a few lines: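 Peptide agonism measured as intracellular cAMP (HTRF) after 30 min at 37° C in serum-free medium, following 40 min 1 mM IBMX preincubation of OVCAR5 cells. Nonlinear regression gave EC50; Emax % = 100 × compound maximal cAMP / H2-relaxin maximal cAMP.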
(In general: cAMP levels reflect the balance of adenylyl cyclase and phosphodiesterase activity.)

Series [4] can be described thus: Stability in human plasma. Particulars: for Human Plasma stability % remaining: T = 0, 37° C., 5 μM. The class given is in vitro ADME. On the procedure:
as §1, §2, §3, §4, §5, §6

Series [5] can be described thus: in vivo. Set-up: species or system Sprague Dawley rats. Particulars: rat. The procedure: Prior to the testing of a peptide batch, its purity (HPLC-UV) was determined. Dose was corrected for presence of salts, solvent and purity. Bioanalytical screening method for quantification of peptides in rat: Sprague Dawley rats were dosed with study peptide at a dose of 1 mg/kg intravenously (i.v.) or 3 mg/kg subcutaneously (s.c.) as a solution in PBS (0.2 mg/ml and 0.6 mg/ml respectively). Blood samples were collected after: 0.083, 0.25, 0.5, 1, 2, 4, 8, 24, 48 and 72 h (i.v. route) and 0.25, 0.5, 1, 2, 4, 6, 8, 10, 24, 48 and 72 h (s.c route) post application. Plasma samples were analyzed after protein precipitation via liquid chromatography mass spectrometry (LC/MS). PK parameters and half-life were calculated using Phoenix 64 (WinNonlin 6.4)-Pharsight (Certara™) (non-compartment model). Values below the limit of quantification (BLQ) were replaced by zero for subsequent calculations and PK analysis. T½: in-vivo half-life, time required for test compound plasma concentration to be divided by two during the PK experiment. C0: Extrapolated test compound plasma concentration at t=0 time point (i.v. route). Cmax: maximal test compound plasma concentration at the indicated time point (s.c. route). Tmax: Time point where Cmax was attained. F %: s.c. vs i.v. bioavailability, dose-corrected area under curve (AUC) s.c. route divided by AUC i.v.

Where [6] appears, read: phosphate buffer 50 mM pH 7.4, read-out: Solubility phosphate buffer pH 7.4.
Setting [7] is: acetate buffer 50 mM pH 4.5, read-out: Solubility Acetate buffer pH 4.5.

The term solubility denotes the dissolved amount per volume that the medium holds. One may read the share remaining as the share of the starting amount still present when the sample was taken. Usually EC50 stands for the concentration that produces a half-maximal response. A lower EC50 goes with an effect from little substance. By Emax is commonly meant the greatest response seen or fitted, relative to the assay's reference. `CCCCCCCCCCCCCCCC(=O)N[C@@H](CCC(=O)N[C@@H](CCC(=O)N[C@@H](CCC(=O)NCCCOCCOCCOCCCNC(=O)CCC(=O)NCCCOCCOCCOCCCNC(=O)CCC(=O)NCCCOCCOCCOCCCNC(=O)CCC(=O)NCCCC[C@H](NC(=O)CNC(=O)[C@H](CCC(=O)O)NC(=O)C(C)(C)NC(=O)C(C)(C)NC(=O)[C@@H](NC(=O)[C@H](CCCCNC(C)=O)NC(=O)[C@H](C)NC(=O)[C@H](CCCNC(=N)N)NC(=O)[C@@H](NC(=O)[C@H](CCCCN)NC(=O)[C@H](CCC(=O)O)NC(=O)[C@H](CCCNC(=N)N)NC(=O)CNC(=O)[C@H](CCC(=O)O)NC(=O)[C@H](CC(C)C)NC(C)=O)C(C)C)[C@@H](C)CC)C(=O)N[C@@H](CO)C(=O)N[C@H](C(=O)N[C@@H](Cc1ccccc1)C(=O)N[C@@H](CO)C(=O)N[C@@H](CCCCN)C(=O)N[C@@H](CCCNC(=N)N)C(=O)N[C@@H](C)C(=O)N[C@@H](CCCCNC(C)=O)C(N)=O)[C@@H](C)O)C(=O)O)C(=O)O)C(=O)O` [compound 13] (Ac-LEGREKVRAK(Ac)I[Aib][Aib]EGK([Suc-X1])STFSKRAK(Ac)-NH2): in series [1] (setting [6]), the solubility was 7680 µg/mL (≈ 1770 µM). In series [2], the “Rat plasma stability % remaining” value is 89%. The same compound came in with an amount remaining at 1 h, 5 μM in series [2] (rat, plasma (sodium or lithium heparin), 1 h, 37° C.) of 100%. In series [3], this compound registered an EC50 of 2.12 nM and an Emax of 91%. Moreover, in series [4], the “Human Plasma stability % remaining” value was 100%. In series [4] (human, plasma (sodium or lithium heparin), 1 h, 37° C.), this compound gave a fraction remaining at 1 h, 5 μM of 91%. The compound also came in with a fraction remaining at 4 h, 5 μM in series [4] (human, plasma (sodium or lithium heparin), 4 h, 37° C.) of 89%.
One may read the half-life as the time in which the quantity being followed falls by half. Lower therefore signals rapid decline. For orientation: bioavailability means dose-corrected exposure relative to a reference, in per cent. Higher therefore signals good availability. What is called Cmax is the highest concentration seen after dosing. One may read the Tmax as the time at which the peak concentration occurs. In the case of `CCCCCCCCCCCCCCCC(=O)N[C@@H](CCC(=O)N[C@@H](CCC(=O)N[C@@H](CCC(=O)NCCCOCCOCCOCCCNC(=O)CCC(=O)NCCCOCCOCCOCCCNC(=O)CCC(=O)NCCCOCCOCCOCCCNC(=O)CCC(=O)NCCCC[C@H](NC(=O)CNC(=O)[C@H](CCC(=O)O)NC(=O)C(C)(C)NC(=O)C(C)(C)NC(=O)[C@@H](NC(=O)[C@H](CCCCNC(C)=O)NC(=O)[C@H](C)NC(=O)[C@H](CCCNC(=N)N)NC(=O)[C@@H](NC(=O)[C@H](CCCNC(=N)N)NC(=O)[C@H](CCC(=O)O)NC(=O)[C@H](CCCNC(=N)N)NC(=O)CNC(=O)[C@H](CCC(=O)O)NC(=O)[C@H](CC(C)C)NC(C)=O)C(C)C)[C@@H](C)CC)C(=O)N[C@@H](CO)C(=O)N[C@H](C(=O)N[C@@H](Cc1c[nH]c2ccccc12)C(=O)N[C@@H](CO)C(=O)NC(C)(C)C(=O)N[C@@H](CCCNC(=N)N)C(=O)N[C@@H](CCCNC(=N)N)C(=O)N[C@@H](CCCCNC(C)=O)C(N)=O)[C@@H](C)O)C(=O)O)C(=O)O)C(=O)O` [compound 55] (Ac-LEGRERVRAK(Ac)I[Aib][Aib]EGK([Suc-X1])STWS[Aib]RRK(Ac)-NH2), in series [5] (Sprague Dawley, iv, 1 mg/kg), the C0 was found to be 4910 nM and the half-life was 4.89 h. This compound displayed a bioavailability in series [5] (Sprague Dawley, sc) of 65%. In addition, in series [5] (Sprague Dawley, sc, 3 mg/kg), the peak concentration (Cmax) was 2070 nM and the Tmax stood at 6 h. In addition, the solubility in series [1] (setting [7]) worked out at 9260 µg/mL (≈ 2080 µM). Moreover, the solubility in series [1] (setting [6]) is 8840 µg/mL (≈ 1980 µM). Besides, in series [3], the half-maximal effective concentration (EC50) was found to be 0.18 nM and the Emax stood at 93%.
With `CCCCCCCCCCCCCCCC(=O)N[C@@H](CCC(=O)N[C@@H](CCC(=O)N[C@@H](CCC(=O)NCCCOCCOCCOCCCNC(=O)CCC(=O)NCCCOCCOCCOCCCNC(=O)CCC(=O)NCCCOCCOCCOCCCNC(=O)CCC(=O)NCCCOCCOCCOCCCNC(=O)CCC(=O)NCCCC[C@H](NC(=O)CNC(=O)[C@H](CCC(=O)O)NC(=O)C(C)(C)NC(=O)C(C)(C)NC(=O)[C@@H](NC(=O)[C@H](CCCCNC(C)=O)NC(=O)[C@H](C)NC(=O)[C@H](CCCNC(=N)N)NC(=O)[C@@H](NC(=O)[C@H](CCCNC(=N)N)NC(=O)[C@H](CCC(=O)O)NC(=O)[C@H](CCCNC(=N)N)NC(=O)CNC(=O)[C@H](CCC(=O)O)NC(=O)[C@H](CC(C)C)NC(C)=O)C(C)C)[C@@H](C)CC)C(=O)N[C@@H](CO)C(=O)N[C@H](C(=O)N[C@@H](Cc1c[nH]c2ccccc12)C(=O)N[C@@H](CO)C(=O)NC(C)(C)C(=O)N[C@@H](CCCNC(=N)N)C(=O)N[C@@H](CCCNC(=N)N)C(=O)N[C@@H](CCCCNC(C)=O)C(N)=O)[C@@H](C)O)C(=O)O)C(=O)O)C(=O)O` [compound 75] (Ac-LEGRERVRAK(Ac)I[Aib][Aib]EGK([Suc-X5])STWS[Aib]RRK(Ac)-NH2), the solubility in series [1] (setting [7]) was found to be 8580 µg/mL (≈ 1800 µM). Also, the solubility in series [1] (setting [6]) turned out to be 9560 µg/mL (≈ 2010 µM). In series [3], this compound came in with an EC50 of 0.19 nM and an Emax of 97%.
Consider “Ac-VIKLSGRELVRAQIAISGMSTWSKKKK-NH2 [KKKK(AcB7-29 C11.23S), reference compound]”, for which the “Rat plasma stability % remaining” value in series [2] was 100%. Also, the “Human Plasma stability % remaining” value in series [4] is reported as 100%.
In the case of “Ac-VIKLSGRELVRAQIAISGMSTWSKRSL-NH2 [AcB7-33 C11.23S, reference compound]”, the “Rat plasma stability % remaining” value in series [2] was found to be 100%. Further, in series [4], the “Human Plasma stability % remaining” value is 100%.
As for “H2-Relaxin: 6-kDa peptidic hormone of 53 amino acids; A chain (SEQ ID NO: 100) and B chain (SEQ ID NO: 101) cross-linked by disulfide bonds”, in series [5] (iv, 1 mg/kg), the C0 worked out at 870 nM and the “T½ (h), in-vivo half-life” value turned out to be 0.46 h.
For the compound “H-VIKLSGRELVRAQIAISGMSTWSKRSL-NH2 [B7-33 C11.23S, reference compound]”, in series [2], the “Rat plasma stability % remaining” value came out at 100%. In addition, the “Human Plasma stability % remaining” value in series [4] was 100%.
